From paper PMC12692036, “Multi-Target Screening of Anti-Diabetic and Antioxidant Potential Bioactive Constituents from Dandelion” (Foods, 2025)
pIC50: −log10 of the molar value.

Experiments:
[1] = ABTS radical scavenging capacity; conditions: mean ± SD, n = 3
Method: This method had been slightly modified according to the literature. Firstly, 1.32 mg·mL^−1 potassium persulfate and 3.84 mg·mL^−1 ABTS^+• were mixed in a volume ratio of 1:1 to obtain the ABTS^+• mother liquor. The ABTS^+• mother liquor was stored in a dark environment for 12–16 h, diluted with ethanol, and adjusted to an absorbance range of 0.695 ± 0.705 at 734 nm to obtain an ABTS^+• working solution. Secondly, 100 μL of sample test solution and 190 μL ABTS^+• working solution were added to a 96-well microplate, shaken well, and reacted in the dark for 30 min. Finally, the absorbance at 734 nm was measured by ReadMax1200 microplate reader. The positive control was Trolox and Vc, and the blank control was anhydrous ethanol, with each experiment conducted in triplicate. The ABTS radical scavenging capacities were also expressed as IC50 and TEAC values, calculating according to Section 2.6.1. The standard curve was plotted to obtain the linear regression equation. The ABTS RCR was calculated as follows: (3) ABTS RCR=AABTS−ASample/AABTS×100% where AABTS and ASample were the absorbance values of blank control and sample, respectively.

α-glucosidase [2] = experiment: Affinity ultrafiltration MTAUF-UPLC-MS/MS of DE with α-glucosidase; assay type: binding, Saccharomyces cerevisiae; conditions: peak area with active / inactivated enzyme; DE 5.0 mg·mL^−1
Method: (§1) Based on hypoglycemic inhibitory activities, potential inhibitors in the DE extract were screened using the MTAUF-UPLC-MS/MS method, as previously described. Firstly, α-amylase or α-glucosidase enzymes were inactivated by heating in boiling water for 20 min. Secondly, 100 µL of DE sample (5.0 mg·mL^−1 in PBS, pH = 6.8), 20 µL of either 2 U·mL^−1 active or inactivated enzyme, and 190 µL PBS were mixed, shaken well, and incubated at 37 °C for 60 min. […] This step was repeated 3 times. […] This step was also repeated 3 times. The resulting solution was dried and reconstituted in 50 µL methanol for further UPLC-QTOF-MS/MS analysis.

α-amylase [3] = target: T1, α-amylase (Sus scrofa, UniProt P00690); experiment: α-Amylase inhibitory activity (DNS method); assay type: biochemical, porcine; conditions: mean ± SD, n = 3
T1 construct: purchased Adamas-beta Reagents Co., Ltd. (Shanghai, China); host or cells: porcine pancreas
T1 sequence (P00690 16-511): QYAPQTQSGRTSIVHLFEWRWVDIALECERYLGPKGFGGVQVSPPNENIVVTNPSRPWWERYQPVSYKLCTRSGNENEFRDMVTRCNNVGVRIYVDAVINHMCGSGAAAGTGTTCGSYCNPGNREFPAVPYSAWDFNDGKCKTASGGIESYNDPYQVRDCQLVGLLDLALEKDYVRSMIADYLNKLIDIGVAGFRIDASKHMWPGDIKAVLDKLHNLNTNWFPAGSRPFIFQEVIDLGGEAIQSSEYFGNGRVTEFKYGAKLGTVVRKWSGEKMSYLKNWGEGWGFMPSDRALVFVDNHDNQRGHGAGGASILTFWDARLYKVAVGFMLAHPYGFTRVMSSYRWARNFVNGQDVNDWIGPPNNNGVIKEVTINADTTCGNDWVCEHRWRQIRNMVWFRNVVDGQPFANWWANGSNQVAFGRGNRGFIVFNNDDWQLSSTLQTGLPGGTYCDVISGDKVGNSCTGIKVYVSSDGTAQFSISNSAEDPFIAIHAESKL
Method: α-Amylase inhibitory activity was examined based on a modified method described previously. Firstly, 200 µL of sample test solution and 100 µL of 1 U·mL^−1 α-amylase solution were transferred into 5 mL centrifuge tube, and incubated in a 37 °C constant temperature water bath for 10 min. Secondly, 200 µL of 1% starch solution was added and incubated in a 37 °C constant temperature water bath for 5 min. Thirdly, 500 µL of DNS reagent was prepared, added, immersed and reacted in boiling water for 5 min [7]. Subsequently, the reaction solution was removed from boiling water and cooled for 10 min. Finally, 200 µL of the reaction solution was transferred into a 96-well microplate, and measured its absorbance value at a wavelength of 540 nm by ReadMax1200 microplate reader. Each experiment was conducted in triplicate.

[4] = DPPH radical scavenging capacity; conditions: mean ± SD, n = 3
Method: This method had been slightly modified according to the literature. Firstly, 10 μL of sample test solution and 190 μL of 0.1 mmol·L^−1 DPPH working solution were added to a 96-well microplate, shaken well, and reacted in the dark for 30 min. The absorbance at 517 nm was measured by ReadMax1200 microplate reader. The positive control was Trolox and Vc, and the blank control was anhydrous ethanol, with each experiment conducted in triplicate. The standard curve was plotted to obtain the linear regression equation. […] The TEAC values were calculated from the standard curve of Trolox and expressed as millimoles of Trolox equivalents per gram of sample (mmol TE/g).

α-glucosidase [5] = experiment: α-Glucosidase inhibitory activity (pNPG); assay type: biochemical, Saccharomyces cerevisiae; conditions: mean ± SD, n = 3
Method: α-Glucosidase inhibitory activity was examined based on a modified method described previously. […] Then, 40 μL of 5 mmol·L^−1 pNPG was added, and the reaction was for an additional 15 min. Finally, 80 μL of 1 mol·L^−1 sodium carbonate was added to terminate the reaction, and measured its absorbance value at a wavelength of 405 nm by ReadMax1200 microplate reader (Shanpu, Shanghai, China). Each experiment was conducted in triplicate. […] The IR was calculated according to Equation (1) in Section 2.5.1.

α-amylase [6] = target: T1, α-amylase; experiment: Affinity ultrafiltration MTAUF-UPLC-MS/MS of DE with α-amylase; assay type: binding, porcine; conditions: peak area with active / inactivated enzyme; DE 5.0 mg·mL^−1
Method: as §1

[7] = FRAP iron ion reduction capacity; conditions: mean ± SD, n = 3
Method: This method had been slightly modified according to the literature. Firstly, 40 mmol·L^−1 HCl, 100 mmol·L^−1 FeSO4, 20 mmol·L^−1 FeCl3, 0.3 mol·L^−1 acetic acid sodium acetate buffer, and 10 mmol·L^−1 TPTZ were carefully prepared, respectively. Secondly, the TPTZ working solution was prepared by mixing 20 mmol·L^−1 FeCl3, 0.3 mol·L^−1 acetic acid sodium acetate buffer, and 10 mmol·L^−1 TPTZ in a volume ratio of 1:10:1. Thirdly, 100 μL of sample test solution and 190 μL TPTZ working solution were added to a 96-well microplate, shaken well, and reacted at room temperature for 10 min. Finally, the absorbance at 593 nm was measured by ReadMax1200 microplate reader. The positive control was Trolox and Vc, and the blank control was anhydrous ethanol, with each experiment conducted in triplicate. The FRAP assay results were quantified by extrapolating the absorbance values to the ferrous sulfate standard curve, with the antioxidant capacity expressed as millimolar ferrous ion equivalents per gram of dry sample weight (mmol Fe^2+·g^−1). The FRAP iron ion reduction capacities were also expressed as TEAC values, calculated according to Section 2.6.1.

SMILES | ABTS radical scavenging capacity IC50 [1] | relative binding affinity (RBA) toward α-glucosidase (α-glucosidase [2]) | IC50 of α-amylase inhibitory activity (α-amylase [3]) | DPPH radical scavenging capacity IC50 [4] | IC50 of α-glucosidase inhibitory activity (α-glucosidase [5]) | relative binding affinity (RBA) toward α-amylase (α-amylase [6]) | iron ion reducing capacity, equivalent concentration of ferrous ions (FRAP) [7] | pIC50 (α-amylase [3])
O=C(/C=C/c1ccc(O)c(O)c1)O[C@H]1[C@H](O)C[C@](O)(C(=O)O)C[C@H]1OC(=O)/C=C/c1ccc(O)c(O)c1 [Compound 2, isochlorogenic acid C] | 3.01 ± 0.03 µg/mL | less than 1 | 254.00 ± 0.78 µg/mL | 5.55 ± 0.02 µg/mL | 84.84 ± 4.31 µg/mL | 1.71 ± 0.07 | 107.35 ± 3.42 mmol Fe^2+·g^−1 | –
O=C(O)c1ccc(O)cc1 [Compound 3, 4-hydroxybenzoic acid] | – | 2.47 ± 0.07 | – | – | – | less than 1 | – | –
COc1cc(/C=C/C(=O)O)ccc1O [Compound 5, ferulic acid] | 1.20 ± 0.00 µg/mL | 1.35 ± 0.05 | – | 6.11 ± 0.06 µg/mL | – | 1.08 ± 0.05 | – | –
COc1ccc(C=CC(=O)O)cc1OC [Compound 6, 3,4-dimethoxy cinnamic acid] | – | less than 1 | – | – | – | 1.05 ± 0.02 | – | –
O=c1cc(-c2ccc(O)c(O)c2)oc2cc(O)cc(O)c12 [Compound 7, luteolin] | 2.47 ± 0.05 µg/mL | less than 1 | – | 1.96 ± 0.05 µg/mL | – | 1.83 ± 0.07 | – | –
O=c1c(O)c(-c2ccc(O)c(O)c2)oc2cc(O)cc(O)c12 [Compound 8, quercetin] | 2.12 ± 0.02 µg/mL | – | – | 4.23 ± 0.04 µg/mL | – | – | 56.40 ± 1.81 mmol Fe^2+·g^−1 | –
O=c1c(-c2ccc(O)cc2)coc2cc(O)cc(O)c12 [Compound 13, genistein] | 18.26 ± 0.52 µg/mL | 1.60 ± 0.03 | – | – | – | 1.15 ± 0.09 | – | –
O=c1cc(-c2ccc(O)cc2)oc2cc(O)cc(O)c12 [Compound 14, apigenin] | – | 1.54 ± 0.03 | – | – | 35.99 ± 0.42 µg/mL | 1.48 ± 0.03 | – | –
O=c1c(O)c(-c2ccc(O)cc2)oc2cc(O)cc(O)c12 [Compound 15, kaempferol] | 3.93 ± 0.04 µg/mL | – | – | 5.18 ± 0.02 µg/mL | – | – | 57.56 ± 1.33 mmol Fe^2+·g^−1 | 4.00
COc1cc(-c2cc(=O)c3c(O)cc(O)cc3o2)cc(OC)c1O[C@H](CO)[C@@H](O)c1ccc(O)cc1 [Compound 17, calquiquelignan D] | – | – | – | – | – | less than 1 | – | –
COc1cc(-c2cc(=O)c3c(O)cc(O)cc3o2)cc(OC)c1O [Compound 18, tricin] | – | – | – | – | – | less than 1 | – | –
O=c1cc(-c2ccccc2)oc2cc(O)cc(O)c12 [Compound 24, chrysin] | – | 1.64 ± 0.05 | – | – | – | 1.66 ± 0.08 | – | –
O=C1C[C@@H](c2ccccc2)Oc2cc(O)cc(O)c21 [Compound 25, pinocembrin] | – | 1.11 ± 0.03 | – | – | – | 1.53 ± 0.06 | – | –
COc1cc(O)c2c(=O)cc(-c3ccc(O)cc3)oc2c1 [Compound 27, genkwanin] | – | 2.09 ± 0.06 | – | – | – | 2.13 ± 0.07 | – | –
C=C1CC[C@]2(C)CC[C@]3(C)[C@H](CC[C@@H]4[C@@]5(C)CC[C@H](O)C(C)(C)[C@@H]5CC[C@]43C)[C@H]2[C@@H]1C [Compound 48, taraxasterol] | – | 1.46 ± 0.09 | – | – | – | less than 1 | – | –
